{"source": "patent US20050267016A1", "about": "“CD-10 activated prodrug compounds” (priority 2001, published 2005)", "key": {"[1]": {"test_system": "22 RV1 (prostate carcinoma) cells", "test": "3H-thymidine incorporation, 22RV1 cells", "type": "cell-based", "conditions": "Homo sapiens, Table 6, 48 hours, read-out: IC50 22RV1 CD10−PSA+", "experimental": "Adherent cells, LNCaP (prostate carcinoma), PC-3 (prostate carcinoma) and 22 RV1 (prostate carcinoma), were cultured in DMEM media containing 10% heat inactivated fetal calf serum (FCS). On the day of the study the cells were detached from the plate with a trypsin solution. The collected cells were washed and resuspended at a concentration of 0.25×10^6 cells/ml in DMEM containing 10% FCS. 100 μl of cell suspension were added to 96 well plates and the plates were incubated for 3 hours to allow the cells to adhere. […] The plates were then incubated for 24 hours, pulsed with 1:0 μl of a 100 μCi/ml ^3H-thymidine and incubated for an additional 24 hours (total incubation time 48 hours). The plates were harvested using a 96 well Harvester (Packard Instruments) and counted on a Packard Top Count Counter. Four parameter logistic curves were fitted to the ^3H-thymidine incorporation as a function of drug molarity using Prism software to determine IC50 values."}, "[2]": {"test_system": "human colon carcinoma (HT-29) xenograft", "conditions": "4.0 mg/kg every 7 days for 5 doses", "source_text": "Healthy young male nude mice were subcutaneously injected with 5 million of HT-29 cells."}, "[3]": {"test_system": "CD10 transfected CHO cells, Clone #3", "test": "3H thymidine proliferation assay, CD10 transfected CHO Clone #3", "type": "cell-based, Chinese Hamster", "conditions": "Cricetulus griseus, Table 25", "protocol": "(§3) The fully assembled coding region was sub-cloned into a mammalian expression vector, downstream of the hCMV-MIE promoter. DNA sequence analysis confirmed sequence identity with the coding sequence of human CD10 (Genbank accession number Y00811). The expression plasmid was linearized and stably transfected into CHO—S cells. CD10 expressing transfectant clones were selected under 500 ug/mL of hygromycin and screened by flow cytometry for cell-surface CD10 expression using a commercially available anti-CD10-FITC antibody."}, "[4]": {"test": "Metabolism and clearance in normal mice (plasma and urine, LC MS/MS)", "type": "in vivo", "conditions": "after Suc-βAla-Ile-Ala-Leu-Dox 117 mg/kg"}, "[5]": {"test_system": "colorectal carcinoma LS174t xenograft", "conditions": "tolerated dose 3 mg/kg, same dosing regimen; cited from earlier work"}, "in vivo": {"test": "in vivo", "conditions": "female, ICR, mouse, iv, 10 umol/kg", "protocol": "(§4) Plasma was obtained from three individual animals in each group at 5 minutes, 1, 2, 4, or 6 hr."}, "normal mice": {"test_system": "normal mice", "conditions": "mouse, in vivo; cited from earlier work"}, "[6]": {"test_system": "CD10 transfected CHO cells, Clone #5", "test": "3H thymidine proliferation assay, CD10 transfected CHO Clone #5", "conditions": "Cricetulus griseus, read-out: IC50 Clone #5", "protocol": "as §3"}, "Parental CHO cells": {"test_system": "Parental CHO cells", "test": "Conversion to Leu-Dox or Gly-Dox in cell supernatants, parental CHO", "type": "cell-based, Chinese Hamster", "conditions": "10 μM, 37° C.", "experimental": "(§1) To directly ask the question of whether the CD10 expressing cells were capable of cleaving the prodrug, supernatants from CD10 transfected or parental CHO cells treated with the compounds were collected. […] After incubation for 1, 4, and 24 hours, an aliquot of each supernatant was transferred to a 96-well plate and frozen at −20° C. Samples were subsequently thawed and analyzed by reversed phase HPLC (4.6×50 mm 21 TSK Super-ODS column) with fluorescence detection after dilution with 3 volumes of acetonitrile, removal of precipitate by centrifugation, and further dilution into 3 volumes of water. When incubated with Suc-βAla-Leu-Ala-Leu-Dox, there was no detectable metabolism to Leu-Dox observed with the parental cell line while clone 8 (CD10 transfected) generated significant levels of Leu-Dox from Suc-βAla-Leu-Ala-Leu-Dox (Table 27)."}, "[7]": {"test_system": "CD10 transfected CHO cells (clone 8)", "test": "Conversion to Leu-Dox or Gly-Dox in cell supernatants, CD10 transfected CHO", "type": "cell-based, Chinese Hamster", "conditions": "Clone 8 (CD10 transfected), 10 μM, 37° C.", "experimental": "as §1"}, "[8]": {"conditions": "mouse, in vivo, iv, 100 umol/kg", "protocol": "as §4"}, "[9]": {"conditions": "mouse, in vivo, iv, 100 umol/kg", "remark": "listed apart in the source", "protocol": "as §4"}, "[10]": {"test_system": "colorectal carcinoma LS174t xenograft", "test": "LS174t xenograft efficacy", "type": "in vivo, nude mice", "conditions": "for Mean Day of Survival (MDS): animals whose tumors reached 1.5 g prior to Day 60; for long-term survivors: up to 60 days", "source_text": "There were 4 and 2 long-term survivors in the low and high dose groups, respectively, compared with 0 in the vehicle control group."}, "LNCaP cell homogenate": {"test_system": "LNCaP cell homogenate", "test": "Hydrolysis by cultured human cell homogenates", "type": "biochemical", "experimental": "(§2) In addition, 1 μM phosphoramidon, a CD10 inhibitor was included in incubations with LNCaP cell homogenate. To estimate specific activity protein content was estimated in the soluble portion of the homogenates. Results expressed as protein specific activity (FIG. 12) indicate that LNCaP cells which are known to contain CD10 show the greatest Suc-Ile-Ala-Leu-Dox hydrolyzing activity."}, "PC-3 cell homogenate": {"test_system": "PC-3 cell homogenate", "test": "Hydrolysis by cultured human cell homogenates", "type": "biochemical", "conditions": "12.5 μg/mL, up to 1 hr, 37° C., pH 7.2", "experimental": "as §2"}}, "note": "Where two headings read alike, the source gives them in different places.", "data": [{"smiles": "COc1cccc2c1C(=O)c1c(O)c3c(c(O)c1C2=O)C[C@@](O)(C(=O)CO)C[C@@H]3O[C@H]1C[C@H](N)[C@H](O)[C@H](C)O1", "note": "[Doxorubicin, reference compound]", "values": [{"measurement": "IC50", "setting": "[1]", "value": 30, "unit": "nM"}, {"measurement": "% TGI (Day 14, mean)", "setting": "[2]", "value": 9.3, "unit": "%"}, {"measurement": "% TGI (Day 25, median)", "setting": "[2]", "value": 30.9, "unit": "%"}, {"measurement": "Calculated Mean Day of Survival", "setting": "[2]", "value": "30.0 ± 3.7", "unit": "days"}, {"measurement": "Extension of Mean Day of Survival over controls", "setting": "[2]", "value": 16.7, "unit": "%"}, {"measurement": "Mean Tumor Weight at Day 14", "setting": "[2]", "value": "665 ± 103", "unit": "mg"}, {"measurement": "Median Tumor Weight at Day 25", "setting": "[2]", "value": 1046, "unit": "mg"}, {"measurement": "Number of Long Term Survivors", "setting": "[2]", "value": "0/10"}, {"measurement": "Calculated Mean Day of Survival", "setting": "[2]; listed as doxorubicin", "value": 30, "unit": "days"}, {"measurement": "IC50", "setting": "[3]", "value": 550, "unit": "nM"}, {"measurement": "Urine (% adm. dose) 2 hr", "setting": "[4]; collected 0-2 hours", "value": 0.21, "unit": "% adm. dose"}, {"measurement": "Urine (% adm. dose) 24 hr", "setting": "[4]; collected 2-24 hours", "value": 0.51, "unit": "% adm. dose"}, {"measurement": "efficacy in LS174t model", "setting": "[5]", "value": "historically ineffective"}, {"measurement": "AUC(0-t)", "setting": "in vivo", "value": 3.3, "unit": "µM·h"}, {"measurement": "MTD of doxorubicin alone, estimated from the standard safe efficacious dose", "setting": "normal mice", "value": 4, "unit": "mg/kg"}, {"measurement": "IC50", "setting": "[6]", "value": 810, "unit": "nM"}]}, {"smiles": "COc1cccc2c1C(=O)c1c(O)c3c(c(O)c1C2=O)C[C@@](O)(C(=O)CO)C[C@@H]3O[C@H]1C[C@H](NC(=O)[C@H](CC(C)C)NC(=O)[C@H](C)NC(=O)[C@H](CC(C)C)NC(=O)CCNC(=O)CCC(=O)O)[C@H](O)[C@H](C)O1", "note": "[Suc-βAla-Leu-Ala-Leu-Dox]", "values": [{"measurement": "Conversion rate to Leu-Dox or Gly-Dox", "setting": "Parental CHO cells", "value": 0, "unit": "mM/h"}, {"measurement": "Percent Conversion/Hour to Leu-Dox or Gly-Dox", "setting": "Parental CHO cells", "value": 0, "unit": "Percent Conversion/Hour"}, {"measurement": "Conversion rate to Leu-Dox or Gly-Dox", "setting": "[7]", "value": 0.30, "unit": "mM/h"}, {"measurement": "Percent Conversion/Hour to Leu-Dox or Gly-Dox", "setting": "[7]", "value": 3.00, "unit": "Percent Conversion/Hour"}, {"measurement": "AUC(0-t)", "setting": "[8]", "value": 806, "unit": "µM·h"}, {"measurement": "Plasma AUC0-6 hr of AL-Dox or AG-Dox*", "setting": "[9]", "value": 3.2, "unit": "µM·h"}, {"measurement": "Plasma AUC0-6 hr of L-Dox or G-Dox*", "setting": "[9]", "value": 40, "unit": "µM·h"}]}, {"smiles": "CC[C@H](C)[C@H](NC(=O)CCNC(=O)CCC(=O)O)C(=O)N[C@@H](C)C(=O)N[C@@H](CC(C)C)C(=O)N[C@H]1C[C@H](O[C@H]2C[C@](O)(C(=O)CO)Cc3c(O)c4c(c(O)c32)C(=O)c2c(OC)cccc2C4=O)O[C@@H](C)[C@H]1O", "note": "[Suc-βAla-Ile-Ala-Leu-Dox]", "values": [{"measurement": "Mean Day of Survival (MDS)", "setting": "[10]; 53 mg/kg Q5DX5", "value": 29.7, "unit": "days"}, {"measurement": "long-term survivors", "setting": "[10]; 53 mg/kg i.v. Q5DX5, groups of ten", "value": 4}, {"measurement": "Mean Day of Survival (MDS)", "setting": "[10]; 68 mg/kg Q5DX5", "value": 23.4, "unit": "days"}, {"measurement": "long-term survivors", "setting": "[10]; 68 mg/kg i.v. Q5DX5, groups of ten", "value": 2}]}, {"smiles": "CC[C@H](C)[C@H](NC(=O)CCC(=O)O)C(=O)N[C@@H](C)C(=O)N[C@@H](CC(C)C)C(=O)N[C@H]1C[C@H](O[C@H]2C[C@](O)(C(=O)CO)Cc3c(O)c4c(c(O)c32)C(=O)c2c(OC)cccc2C4=O)O[C@@H](C)[C@H]1O", "note": "[Suc-Ile-Ala-Leu-Dox]", "values": [{"measurement": "hydrolyzing activity (protein specific activity)", "setting": "LNCaP cell homogenate; LNCaP cell homogenate with 1 μM phosphoramidon", "value": "inhibited by phosphoramidon"}, {"measurement": "hydrolyzing activity (protein specific activity)", "setting": "LNCaP cell homogenate; LNCaP cell homogenate, 12.5 μg/mL, up to 1 hr, 37° C., pH 7.2", "value": "greatest"}, {"measurement": "hydrolysis by homogenate", "setting": "PC-3 cell homogenate", "value": "not"}]}]}
